Measurements: article PMC8826350, “Structural feature-driven pattern analysis for multitarget modulator landscapes” (Bioinformatics, 2021)

Tests used:
ABCB1 [1] = target: T1, ABCB1 (Homo sapiens, UniProt P08183); assay: Calcein AM assay (plate reader), ABCB1-overexpressing A2780/ADR cells
ABCC1 [2] = target: T2, ABCC1 (Homo sapiens, UniProt P33527); assay: Calcein AM assay (plate reader), ABCC1-overexpressing H69AR cells; details: for IC50±SEM ABCC1 Calcein AM: H69AR cells, curve top constrained to reference 7; for mode of modulation of ABCC1 (in words): initial screening at 10 µM, calcein AM assay
ABCG2 [3] = target: T3, ABCG2 (Homo sapiens, UniProt Q9UNQ0); assay: Pheophorbide A assay (flow cytometry), ABCG2-overexpressing MDCK II BCRP cells; assay type: cell-based; set-up: host or cells: MDCK II; details: curve top constrained to reference 8, read-out: IC50±SEM ABCG2 Pheophorbide A
T3 sequence (Q9UNQ0 1-655): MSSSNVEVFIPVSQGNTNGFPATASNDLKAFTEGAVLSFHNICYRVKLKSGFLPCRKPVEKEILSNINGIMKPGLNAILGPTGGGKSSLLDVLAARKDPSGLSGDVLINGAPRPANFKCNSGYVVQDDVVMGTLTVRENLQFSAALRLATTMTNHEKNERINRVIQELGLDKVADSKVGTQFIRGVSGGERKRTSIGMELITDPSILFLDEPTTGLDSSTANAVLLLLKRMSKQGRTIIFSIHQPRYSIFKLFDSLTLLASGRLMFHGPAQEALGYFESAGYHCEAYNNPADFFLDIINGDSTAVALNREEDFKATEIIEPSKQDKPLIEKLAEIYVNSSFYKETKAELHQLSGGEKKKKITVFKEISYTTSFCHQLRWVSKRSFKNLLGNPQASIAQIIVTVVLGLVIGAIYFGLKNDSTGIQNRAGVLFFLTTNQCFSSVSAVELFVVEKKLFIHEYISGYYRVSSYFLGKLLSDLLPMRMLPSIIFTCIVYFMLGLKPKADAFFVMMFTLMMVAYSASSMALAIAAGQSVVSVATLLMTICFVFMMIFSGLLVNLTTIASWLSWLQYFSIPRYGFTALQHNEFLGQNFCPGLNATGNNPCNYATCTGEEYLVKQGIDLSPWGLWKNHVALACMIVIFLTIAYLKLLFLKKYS

ABCG2 [4] = target: T3, ABCG2; assay: Hoechst 33342 assay (plate reader), MDCK II BCRP cells
Procedure: The fluorescence accumulation at an excitation wavelength of 360 nm and an emission wavelength of 460 nm was measured over a period of 120 min in 60 s intervals using a Paradigm microplate reader [Beckman Coulter (Brea, CA, USA)]. The average steady-state fluorescence value was calculated for each well and correlated to the used compound concentration.

ABCC1 [5] = target: T2, ABCC1; assay: Daunorubicin accumulation assay (flow cytometry), H69AR cells
ABCB1 [6] = target: T1, ABCB1; assay: Daunorubicin accumulation assay (flow cytometry), A2780/ADR cells

T1 sequence (P08183 whole entry): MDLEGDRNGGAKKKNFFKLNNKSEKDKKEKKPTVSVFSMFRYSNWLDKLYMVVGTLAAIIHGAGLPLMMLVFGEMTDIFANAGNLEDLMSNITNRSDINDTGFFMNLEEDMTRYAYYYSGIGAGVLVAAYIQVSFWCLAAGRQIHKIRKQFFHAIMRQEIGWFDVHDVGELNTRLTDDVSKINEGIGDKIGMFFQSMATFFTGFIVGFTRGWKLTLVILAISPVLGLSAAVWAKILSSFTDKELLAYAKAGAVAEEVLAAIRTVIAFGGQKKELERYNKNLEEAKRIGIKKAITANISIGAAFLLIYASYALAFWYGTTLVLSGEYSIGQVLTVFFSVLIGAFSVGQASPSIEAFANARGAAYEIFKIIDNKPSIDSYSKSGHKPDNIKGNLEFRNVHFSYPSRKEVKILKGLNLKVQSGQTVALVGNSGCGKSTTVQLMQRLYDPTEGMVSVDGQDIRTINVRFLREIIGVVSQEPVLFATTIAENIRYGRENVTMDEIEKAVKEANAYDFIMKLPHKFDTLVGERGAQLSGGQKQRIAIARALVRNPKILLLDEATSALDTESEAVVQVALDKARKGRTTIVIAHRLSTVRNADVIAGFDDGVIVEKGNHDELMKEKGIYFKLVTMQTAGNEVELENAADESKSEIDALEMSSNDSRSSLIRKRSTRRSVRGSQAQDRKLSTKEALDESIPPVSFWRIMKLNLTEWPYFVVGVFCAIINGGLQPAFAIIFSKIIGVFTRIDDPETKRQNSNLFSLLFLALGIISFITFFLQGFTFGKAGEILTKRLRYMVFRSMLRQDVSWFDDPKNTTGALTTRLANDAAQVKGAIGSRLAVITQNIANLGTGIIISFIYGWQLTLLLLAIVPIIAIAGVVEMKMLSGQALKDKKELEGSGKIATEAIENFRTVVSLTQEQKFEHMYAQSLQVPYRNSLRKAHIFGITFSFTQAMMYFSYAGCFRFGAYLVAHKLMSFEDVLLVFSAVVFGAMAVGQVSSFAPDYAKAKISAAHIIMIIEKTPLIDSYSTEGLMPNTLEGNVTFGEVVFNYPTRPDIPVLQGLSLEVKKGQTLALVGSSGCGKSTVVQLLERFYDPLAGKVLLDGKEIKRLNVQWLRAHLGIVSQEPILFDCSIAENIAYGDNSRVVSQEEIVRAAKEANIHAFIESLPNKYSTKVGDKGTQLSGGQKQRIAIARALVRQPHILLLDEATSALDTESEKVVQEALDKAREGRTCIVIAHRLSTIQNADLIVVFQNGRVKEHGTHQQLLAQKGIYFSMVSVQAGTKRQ
T2 sequence (P33527 whole entry): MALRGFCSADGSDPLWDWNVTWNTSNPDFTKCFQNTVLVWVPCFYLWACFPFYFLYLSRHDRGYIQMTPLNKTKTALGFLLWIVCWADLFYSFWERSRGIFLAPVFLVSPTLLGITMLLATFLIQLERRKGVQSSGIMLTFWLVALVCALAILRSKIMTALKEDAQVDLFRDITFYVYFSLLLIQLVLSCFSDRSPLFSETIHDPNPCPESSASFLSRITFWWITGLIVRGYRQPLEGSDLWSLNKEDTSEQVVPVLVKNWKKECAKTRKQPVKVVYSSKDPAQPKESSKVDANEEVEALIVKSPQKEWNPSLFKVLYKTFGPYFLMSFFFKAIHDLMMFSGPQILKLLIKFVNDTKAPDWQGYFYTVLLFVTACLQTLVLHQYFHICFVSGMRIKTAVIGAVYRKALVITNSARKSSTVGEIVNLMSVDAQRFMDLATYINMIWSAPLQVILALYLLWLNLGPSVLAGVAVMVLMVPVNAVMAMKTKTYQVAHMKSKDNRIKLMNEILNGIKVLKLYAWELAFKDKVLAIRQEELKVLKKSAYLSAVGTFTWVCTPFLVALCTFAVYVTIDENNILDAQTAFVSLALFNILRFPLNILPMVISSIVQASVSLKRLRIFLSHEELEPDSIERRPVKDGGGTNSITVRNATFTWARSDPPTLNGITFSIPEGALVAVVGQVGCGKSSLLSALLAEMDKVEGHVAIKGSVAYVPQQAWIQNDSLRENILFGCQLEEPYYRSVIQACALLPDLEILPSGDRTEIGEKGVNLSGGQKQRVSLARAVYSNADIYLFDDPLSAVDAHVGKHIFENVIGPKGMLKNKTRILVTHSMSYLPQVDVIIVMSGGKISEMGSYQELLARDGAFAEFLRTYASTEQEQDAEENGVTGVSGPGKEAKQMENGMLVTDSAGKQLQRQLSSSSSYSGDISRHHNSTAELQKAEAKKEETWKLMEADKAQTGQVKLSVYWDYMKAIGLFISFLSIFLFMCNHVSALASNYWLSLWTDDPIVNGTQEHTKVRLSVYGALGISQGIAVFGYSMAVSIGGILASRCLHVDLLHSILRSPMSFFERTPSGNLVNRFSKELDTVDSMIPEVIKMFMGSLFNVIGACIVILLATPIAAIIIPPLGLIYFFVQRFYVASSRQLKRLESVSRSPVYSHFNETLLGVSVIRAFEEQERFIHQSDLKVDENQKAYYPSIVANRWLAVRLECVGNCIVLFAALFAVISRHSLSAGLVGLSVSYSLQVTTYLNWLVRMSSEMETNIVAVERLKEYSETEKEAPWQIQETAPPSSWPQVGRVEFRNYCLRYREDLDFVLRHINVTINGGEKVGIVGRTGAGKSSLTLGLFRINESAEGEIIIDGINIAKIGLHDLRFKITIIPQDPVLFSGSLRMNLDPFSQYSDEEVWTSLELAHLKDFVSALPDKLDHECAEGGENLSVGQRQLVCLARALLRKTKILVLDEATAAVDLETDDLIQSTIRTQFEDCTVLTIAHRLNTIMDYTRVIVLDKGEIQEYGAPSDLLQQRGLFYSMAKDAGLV

IC50 (ABCB1 [1]) | IC50±SEM ABCC1 Calcein AM (ABCC1 [2]) | mode of modulation of ABCC1 (in words) (ABCC1 [2]) | IC50 (ABCG2 [3]) | IC50 (ABCB1 [6]) | SMILES | IC50 (ABCC1 [2]) | IC50 (ABCG2 [4]) | IC50 (ABCC1 [5])
8.26 ± 0.54 µM | n.i. | apparent slight activation of ABCC1 | 25.8 ± 12.1 µM |  | Cn1c(=O)n(C)c2cc(S(=O)(=O)N3CCN(C(c4ccccc4)c4ccccc4)CC3)ccc21 [Compound 2] |  |  | 
15.5 ± 1.3 µM | n.i. |  | 15.1 ± 1.2 µM |  | O=C(C1c2ccccc2Oc2ccccc21)N1CCN(Cc2nnnn2-c2ccc(F)cc2)CC1 [Compound 4] |  |  | 
22.7 ± 5.4 µM | n.i. | apparent slight activation of ABCC1 | 7.89 ± 0.44 µM |  | Cc1ccccc1Cn1c(N2CCN(CCc3ccccc3)CC2)nc2c1c(=O)[nH]c(=O)n2C [Compound 1] |  |  | 
25.6 ± 1.1 µM |  |  | 12.4 ± 1.3 µM | 80.2 ± 30.1 µM | COc1ccc(OCc2noc(CN3CCN(C(=O)C45CC6CC(CC(C6)C4)C5)CC3)n2)cc1 [Compound 5] | 60.9 ± 14 µM | 28.5 ± 6.1 µM | 57 ± 6.5 µM

SMILES | IC50 (ABCB1 [1]) | IC50±SEM ABCC1 Calcein AM (ABCC1 [2]) | mode of modulation of ABCC1 (in words) (ABCC1 [2]) | IC50 (ABCG2 [3]) | IC50 (ABCB1 [6]) | IC50 (ABCC1 [2]) | IC50 (ABCG2 [4]) | IC50 (ABCC1 [5])
Cc1onc(-c2ccccc2Cl)c1C(=O)N1CCN(Cc2nnnn2-c2ccc(F)cc2)CC1 [Compound 3] |  |  |  | 15.9 ± 1.1 µM |  | 38.6 ± 2.2 µM | 37.9 ± 12.5 µM | 38.7 ± 15.2 µM
